Measured values: the NIST ThermoML archive (doi:10.1016/j.jct.2013.09.026)
Numbers after ± are expanded uncertainties.

Conditions: 298.15 K; 101.33 kPa; Liquid; Vibrating tube method

SMILES | mass density [kg/m3]
CCN(CC)CC [triethylamine] | 722.814 ± 0.19
CCC(C)=O [butanone] | 799.969 ± 0.17
CCCO [propan-1-ol] | 799.656 ± 0.17
